In patent US8097585B2, “Methods of treating inflammation by administration of heme oxygenase-1 and products of heme degradation” (priority 2002, dated 2012):
Structures can show the parent of a compound that is named as a salt.

Key:
[1] = system: IL-10; experiment: Endotoxic shock (LPS) model, serum IL-10; format: in vivo, Sprague-Dawley rats; details: biliverdin i.p. […] 17 h and 1 h prior to and 8 h after LPS
Method: Treatment Protocol. Endotoxin (lipopolysaccharide/LPS; Sigma; E. coli serotype 0128:B7; 3 mg/kg, i.v.) was administered to male Sprague-Dawley, resulting in an acute non-lethal inflammation. In rats, a sublethal dose of LPS results in a moderate lung inflammation characterized by neutrophil accumulation and protein accumulation in the airspace, both markers of lung inflammation. The pro-inflammatory cytokine TNF-alpha increases very rapidly in the serum, peaking by 60-90 minutes. This is followed by increases in IL-10, a prototypical anti-inflammatory cytokine that peaks 8-12 hr later.
Administration of Biliverdin. Biliverdin (Frontier Scientific: prepared in PBS following solubilization in NaOH) was administered i.p. at […] 17 hours prior to, one hour prior to, and eight hours after LPS administration.
Bronchoalveolar Lavage. A bronchoalveolar lavage (BAL) was performed 24 hours after LPS administration. Serum cytokines were measured using commercially available ELISA kits (R&D Systems Inc.) per the manufacturer's instructions. Total protein was determined via a standard Bradford assay based on a standard curve. […] Total cell count was determined as well as differential analysis of cell type and morphology via Diff-Quik® Fixative (American Scientific Products) staining of a sample of the lavagate.

[2] = system: IL-1β; experiment: Real time RT-PCR of graft muscularis after SITx, IL-1β; format: in vivo, LEW rats; details: BV 50 mmol/kg i.p. donor and recipient; 4 hours; versus saline-treated graft
Method: Small Intestinal Transplantation. Orthotopic small intestinal transplantation (SITx) was performed in syngeneic Lewis rats. SITx with caval drainage was performed using a previously described procedure (Murase et al., in Handbook of Animal Models in Transplantation Research, Cramer et al., Eds. CRC Press, Boca Raton, Fla., pp. 203-213 (1994)). […] The graft was perfused via the aortic segment with 5 ml chilled Ringer's lactate solution, and the intestinal lumen was irrigated with 20 ml of cold saline solution containing 0.5% neomycin-sulfate (Sigma, St. Louis, Mo.). […]
(§1) SYBR green real time RT-PCR. The effects of administration of biliverdin on transplant-induced pro-inflammatory and anti-inflammatory gene expression were assessed in muscularis extracts by RT-PCR Biliverdin ([…], i.p.) was administered to both the donor and recipient three hours preoperatively. […] Equal aliquots (5 μg) of total RNA from each sample were quantified by spectrophotometry (wavelength […]) and aliquoted at a concentration of 40 ng/μl. Peak mRNA expression was quantified in duplicate by SYBR Green two-step, real-time RT-PCR. […] Real-time PCR data were plotted as the ΔRn fluorescence signal versus the cycle number. […] Quantification of mRNA expression was normalized to GAPDH and calculated relative to control using the comparative CT method (Schmittgen et al., J. Biochem. Biophys. Methods 46(1-2):69-8, 2000). […]

[3] = system: IL-6; experiment: Real time RT-PCR of graft muscularis after SITx, IL-6; format: in vivo, LEW rats
Method: Small Intestinal Transplantation. Orthotopic small intestinal transplantation (SITx) was performed in syngeneic Lewis rats. SITx with caval drainage was performed using a previously described procedure (Murase et al., in Handbook of Animal Models in Transplantation Research, Cramer et al., Eds. CRC Press, Boca Raton, Fla., pp. 203-213 (1994)). […] The graft was perfused via the aortic segment with 5 ml chilled Ringer's lactate solution, and the intestinal lumen was irrigated with 20 ml of cold saline solution containing 0.5% neomycin-sulfate (Sigma, St. Louis, Mo.). End-to-side anastomoses between the graft aorta and the recipient infrarenal aorta, and between the graft portal vein and recipient vena cava, were performed with 10-0 Novafil™ suture. The cold ischemic time was 1 hour. The entire recipient intestine was removed and the enteric continuity was restored by proximal and distal end-to-end intestinal anastomoses. Recipient animals were given 20 mg/day prophylactic cefamandole nafate for 3 postoperative days. Transplanted recipients were given water 3 hours after surgery, and were fed 24 hours after surgery.
as §1, with “preoperatively. The muscularis externae was collected from normal intestine and transplanted grafts 4 hours postoperatively and snap frozen in liquid nitrogen.” for “preoperatively.”

[4] = system: HO-1; experiment: HO-1 induction during intestinal I/R injury; format: in vivo, LEW rats; details: BV treatment
Method: HO-1 Induction During Intestinal I/R Injury. Since HO-1 regulates heme catalysis and BV production, exogenously provided BV may influence endogenous HO-1 induction in BV-treated recipients. In the normal intestine, HO-1 protein expression was absent. Ischemia/reperfusion injury was associated with a gradual increase of HO-1 expression in air-treated grafts, reaching maximum level between 6 and 24 hours following reperfusion.

[5] = system: fulminant hepatitis; experiment: TNF-α/D-Galactosamine hepatitis model, serum ALT; format: in vivo, mice (C57BL/6J)
Method: Male mice (C57BL/6J) were administered biliverdin ([…], i.p.) 16 hours and 1 hour prior to i.p. injection of a cocktail including 0.3 ug/mouse TNF-α (mouse TNF-α; Gibco) and 250 mg/kg, i.p. D-Galactosamine (Sigma), which induces fulminant hepatitis within 6-10 hours. Control mice received PBS vehicle. Serum samples were taken via cardiac puncture 6-8 hours later and analyzed for alanine aminotransferase (ALT) per an ALT assay kit from Sigma Chem. Co. following the manufacturer's directions.

## C=CC1=C(C)/C(=C/C2=NC(=C\c3[nH]c(/C=C4\NC(=O)C(C)=C4C=C)c(C)c3CCC(=O)O)/C(CCC(=O)O)=C2C)NC1=O [biliverdin, biliverdin dihydrochloride]
[1]
  IL-10 level: augmentation
[2]
  reduction of IL-1b mRNA expression: 30%
[3]; BV 50 mmol/kg i.p. donor and recipient, 4 hours, versus saline-treated graft
  reduction of IL-6 mRNA expression: 24%
[3]; BV treatment of unoperated animals
  basal mRNA expression of any of the cytokines: did not alter
[4]
  intestinal HO-1 production: did not have a significant effect
[5]; 6-8 hours after TNF-α/D-Galactosamine, control about 1000, normal 20-30
  serum ALT: ~100 IU/ml
[5]; biliverdin 50 mmol/kg i.p. 16 hours and 1 hour prior to TNF-α/D-Galactosamine
  reduction of serum ALT levels compared to vehicle treated controls: more than 90%
